Reference: patent US8637550B2, “Heteroaryl diamide compounds useful as MMP-13 inhibitors” (Boehringer Ingelheim International GmbH, priority 2008, dated 2014)
pIC50: −log10 of the molar value.

Target: MMP-13 (Homo sapiens, UniProt P45452)
Test: EnzoLyte 520 Generic MMP Assay Kit, 5-FAM/QXL520 FRET peptide substrate
Type: biochemical
Text: The EnzoLyte™ 520 Generic MMP Assay Kit (AnaSpec Inc.) can detect the activity of several MMPs including MMP-1, 2, 3, 7, 8, 9, 13, and 14. This kit uses a 5-FAM/QXL™520 fluorescence resonance energy transfer (FRET) peptide as an MMP substrate.

Row | pIC50 | SMILES
1 | 6.74 | CNC(=O)[C@@H](NC(=O)c1ccc(-c2cccc(CNC(=O)c3ccnnc3)c2)o1)C(C)C [N-[3-(5-{[(1S)-2-methyl-1-(methylcarbamoyl)propyl]carbamoyl}-2-furyl)benzyl]pyridazine-4-carboxamide]
2 | 7.00 | CNC(=O)[C@@H](NC(=O)c1ccc(-c2cccc(CNC(=O)C3CCCCO3)c2)o1)C(C)C (stereo partly drawn) [N-[3-(5-{[(1S)-2-methyl-1-(methylcarbamoyl)propyl]carbamoyl}-2-furyl)benzyl]tetrahydro-2H-pyran-2-carboxamide]
3 | 6.47 | CNC(=O)[C@@H](NC(=O)c1ccc(-c2cccc(CNC(=O)C3CCOCC3)c2)o1)C(C)C [N-[3-(5-{[(1S)-2-methyl-1-(methylcarbamoyl)propyl]carbamoyl}-2-furyl)benzyl]tetrahydro-2H-pyran-4-carboxamide]
4 | 6.30 | CNC(=O)[C@@H](NC(=O)c1ccc(-c2ccc(NC(=O)c3cc4ccccc4o3)cc2)o1)C1CCCCC1 [N-[4-(5-{[(1S)-1-cyclohexyl-2-(methylamino)-2-oxoethyl]carbamoyl}furan-2-yl)phenyl]-1-benzofuran-2-carboxamide]
5 | 6.85 | CNC(=O)[C@@H](NC(=O)c1ccc(-c2ccc(NC(=O)c3cn(C)cn3)cc2)o1)C1CCCCC1 [N-[4-(5-{[(1S)-1-cyclohexyl-2-(methylamino)-2-oxoethyl]carbamoyl}furan-2-yl)phenyl]-1-methyl-1H-imidazole-4-carboxamide]
6 | 7.51 | CNC(=O)[C@@H](NC(=O)c1ccc(-c2ccc(NC(=O)c3ccn(C)n3)cc2)o1)C1CCCCC1 [N-[4-(5-{[(1S)-1-cyclohexyl-2-(methylamino)-2-oxoethyl]carbamoyl}furan-2-yl)phenyl]-1-methyl-1H-pyrazole-3-carboxamide]
7 | 6.74 | CNC(=O)[C@@H](NC(=O)c1ccc(-c2ccc(NC(=O)c3cnn(C)c3)cc2)o1)C1CCCCC1 [N-[4-(5-{[(1S)-1-cyclohexyl-2-(methylamino)-2-oxoethyl]carbamoyl}furan-2-yl)phenyl]-1-methyl-1H-pyrazole-4-carboxamide]
8 | 7.00 | CNC(=O)[C@@H](NC(=O)c1ccc(-c2ccc(NC(=O)c3ccnn3C)cc2)o1)C1CCCCC1 [N-[4-(5-{[(1S)-1-cyclohexyl-2-(methylamino)-2-oxoethyl]carbamoyl}furan-2-yl)phenyl]-1-methyl-1H-pyrazole-5-carboxamide]
9 | 7.03 | CNC(=O)[C@@H](NC(=O)c1ccc(-c2ccc(NC(=O)c3occc3C)cc2)o1)C1CCCCC1 [N-[4-(5-{[(1S)-1-cyclohexyl-2-(methylamino)-2-oxoethyl]carbamoyl}furan-2-yl)phenyl]-3-methylfuran-2-carboxamide]
10 | 7.20 | CNC(=O)[C@@H](NC(=O)c1ccc(-c2ccc(NC(=O)c3cc(C)c(C)o3)cc2)o1)C1CCCCC1 [N-[4-(5-{[(1S)-1-cyclohexyl-2-(methylamino)-2-oxoethyl]carbamoyl}furan-2-yl)phenyl]-4,5-dimethylfuran-2-carboxamide]
11 | 7.06 | CNC(=O)[C@@H](NC(=O)c1ccc(-c2ccc(NC(=O)c3cc(C)[nH]n3)cc2)o1)C1CCCCC1 [N-[4-(5-{[(1S)-1-cyclohexyl-2-(methylamino)-2-oxoethyl]carbamoyl}furan-2-yl)phenyl]-5-methyl-1H-pyrazole-3-carboxamide]
12 | 7.24 | CNC(=O)[C@@H](NC(=O)c1ccc(-c2ccc(NC(=O)c3ccc(C)o3)cc2)o1)C1CCCCC1 [N-[4-(5-{[(1S)-1-cyclohexyl-2-(methylamino)-2-oxoethyl]carbamoyl}furan-2-yl)phenyl]-5-methylfuran-2-carboxamide]
13 | 6.82 | CNC(=O)[C@@H](NC(=O)c1ccc(-c2ccc(NC(=O)c3cn4c(C)cccc4n3)cc2)o1)C1CCCCC1 [N-[4-(5-{[(1S)-1-cyclohexyl-2-(methylamino)-2-oxoethyl]carbamoyl}furan-2-yl)phenyl]-5-methylimidazo[1,2-a]pyridine-2-carboxamide]
